Measured values from US6784201B2, “Benzothiepines having activity as inhibitors of ileal bile acid transport and taurocholate uptake” (G.D. Searle & Company, priority 1994, dated 2004).
Like-named read-outs stand apart in the source and are kept apart here.

What was measured:
Fecal Bile Acid = experiment: Fecal bile acid concentration (FBA), cholesterol-fed hamsters; type: in vivo, hamster; conditions: 0.2% Cpd. No. 25, mean (SEM)
Description: Measurement of Fecal Bile Acid Concentration (FBA)
Total fecal output from individually housed hamsters was collected for 24 or 48 hours, dried under a stream of nitrogen, pulverized and weighed. Approximately 0.1 gram was weighed out and extracted into an organic solvent (butanol/water). Following separation and drying, the residue was dissolved in methanol and the amount of bile acid present was measured enzymatically using the 3α-hydroxysteroid steroid dehydrogenase reaction with bile acids to reduce NAD. (Reference: Mashige, F., et al. (1981) Clin. Chem. 27, 1352).

[1] = test system: Rat Ileal Uptake of [14C]-Taurocholate; experiment: In vivo assay of rat ileal uptake of [14C]-taurocholate into bile (ileal loop)
Description: In Vivo Assay of Compounds that Inhibit Rat Ileal Uptake of [^14C]-Taurocholate into Bile
(See “Metabolism of 3α,7β-dihydroxy-7α-methyl-5β-cholanoic acid and 3α,7β-dihydroxy-7α-methyl-5β-cholanoic acid in hamsters” in Biochimica et Biophysica Acta 833 (1985) 196-202 by Une et al.)
Male wistar rats (200-300 g) are anesthetized with inactin @100 mg/kg. Bile ducts are cannulated with a 10″ length of PE10 tubing. The small intestine is exposed and laid out on a gauze pad. A canulae (⅛″ luer lock, tapered female adapter) is inserted at 12 cm from the junction of the small intestine and the cecum. A slit is cut at 4 cm from this same junction (utilizing a 8 cm length of ileum). 20 ml of warm Dulbecco's phosphate buffered saline, pH 6.5 (PBS) is used to flush out the intestine segment. The distal opening is cannulated with a 20 cm length of silicone tubing (0.02″ I.D.×0.037″ O.D.). The proximal cannulae is hooked up to a peristaltic pump and the intestine is washed for 20 min with warm PBS at 0.25 ml/min. Temperature of the gut segment is monitored continuously. At the start of the experiment, 2.0 ml of control sample ([^14C]-taurocholate @ 0.05 mi/ml with 5 mM cold taurocholate) is loaded into the gut segment with a 3 ml syringe and bile sample collection is begun. Control sample is infused at a rate of 0.25 ml/min for 21 min. Bile samples fractions are collected every 3 minute for the first 27 minutes of the procedure. After the 21 min of sample infusion, the ileal loop is washed out with 20 ml of warm PBS (using a 30 ml syringe), and then the loop is washed out for 21 min with warm PBS at 0.25 ml/min. A second perfusion is initiated as described above but this with test compound being administered as well (21 min administration followed by 21 min of wash out) and bile sampled every 3 min for the first 27 min. If necessary, a third perfusion is performed as above that typically contains the control sample.

human IBAT = target: T1, human IBAT (Homo sapiens, UniProt Q12908); experiment: In vitro assay of IBAT-mediated uptake of [14C]-taurocholate (TC) in H14 cells; type: cell-based
T1 construct: expressed in transfected cells; host or cells: Baby hamster kidney (BHK) cells, clone H14
T1 sequence (Q12908 1-348): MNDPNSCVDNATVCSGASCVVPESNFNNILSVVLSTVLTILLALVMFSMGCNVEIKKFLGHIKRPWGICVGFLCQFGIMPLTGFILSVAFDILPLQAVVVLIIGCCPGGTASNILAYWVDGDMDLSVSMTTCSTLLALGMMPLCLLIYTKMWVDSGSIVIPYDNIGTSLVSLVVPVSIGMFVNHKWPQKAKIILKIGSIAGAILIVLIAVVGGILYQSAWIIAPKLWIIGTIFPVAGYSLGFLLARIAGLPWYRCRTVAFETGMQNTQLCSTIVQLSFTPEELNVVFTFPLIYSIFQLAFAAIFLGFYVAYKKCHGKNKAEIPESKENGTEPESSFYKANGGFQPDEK
Method in brief: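 BHK cells stably expressing human IBAT (H14) were incubated 2 h at 37° C with compound and 3 μM final [14C]-taurocholate in DMEM (4.5 g/L glucose) plus 0.2% fatty acid-free BSA. After cold PBS washes, cell-associated radioactivity was measured by scintillation counting.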

[2] = test system: Hepatic Cholesterol 7-α-Hydroxylase; experiment: Hepatic cholesterol 7-α-hydroxylase activity, cholesterol-fed hamsters; type: in vivo, hamster; conditions: 0.2% Cpd. No. 25, mean (SEM)
Description: Measurement of Hepatic Cholesterol 7-α-Hydroxylase Activity (7a-OHase)
Hepatic microsomes were prepared by homogenizing liver samples in a phosphate/sucrose buffer, followed by centrifugal separation. The final pelleted material was resuspended in buffer and an aliquot was assayed for cholesterol 7-α-hydroxylase activity by incubating for 5 minutes at 37° C. in the presence of NADPH. Following extraction into petroleum ether, the organic solvent was evaporated and the residue was dissolved in acetonitrile/methanol. The enzymatic product was separated by injecting an aliquot of the extract onto a C18 reversed phase HPLC column and quantitating the eluted material using UV detection at 240 nm. (Reference: Horton, J. D., et al. (1994) J. Clin. Invest. 93, 2084).

ACAT = experiment: Acyl-CoA; cholesterol acyl transferase (ACAT), hamster liver microsomes; type: biochemical; conditions: read-out: ACAT (liver) IC(50)
Description: Acyl-CoA; Cholesterol Acyl Transferase (ACAT)
Hamster liver and rat intestinal microsomes were prepared from tissue as described previously (Reference: (1980) J. Biol. Chem. 255, 9098) and used as a source of ACAT enzyme. The assay consisted of a 2.0 ml incubation containing 24 μM Oleoyl-CoA (0.05 μCi) in a 50 mM sodium phosphate, 2 mM DTT ph 7.4 buffer containing 0.25% BSA and 200 μg of microsomal protein. The assay was initiated by the addition of oleoyl-CoA. The reaction went for 5 min at 37° C. and was terminated by the addition of 8.0 ml of chloroform/methanol (2:1). […] The chloroform phase was taken to dryness and then spotted on a silica gel 60 TLC plate and developed in hexane/ethyl ether (9:1). The amount of cholesterol ester formed was determined by measuring the amount of radioactivity incorporated into the cholesterol oleate spot on the TLC plate with a Packard instaimager.

## CCCC[C@]1(CC)CS(=O)(=O)c2cc(OC)ccc2[C@@H](c2ccccc2)[C@H]1O [Example 25, (3α,4β,5β) 3-Butyl-3-ethyl-4-hydroxy-8-methoxy-5-phenyl-2,3,4,5-tetrahydrobenzothiepine-1,1-dioxide]
Fecal Bile Acid
  FBA (mM/24 H/100 g): 11.9 (0.5) mM/24 H/100 g
[1]; Rattus norvegicus, read-out: % of Control Transport of TC in Rat Ileum @ 0.1 mM
  activity at 100 µM: 26%
[1]; rat ileal loop, read-out: TC-uptake Ileal Loop EC(50)
  EC50: 20 µM
Human IBAT; H14 cells, Table 5, read-out: IC50 uM (In vitro Taurocholate Cell Uptake)
  IC50: 0.1 µM
Human IBAT; Table 6, read-out: TC-uptake (H14 cells) IC(50)
  IC50: 0.1 µM
[2]
  7a-OHase (pm/mg/min.): 291.0 (6.0) *A pm/mg/min.
ACAT
  IC50: 8 µM
